# Assay results reported in patent publication US10238641B2, “Materials and methods for diagnosis, prevention and/or treatment of stress disorders and conditions associated with A-beta peptide aggregation” (The United States of America as represented by the …, priority 2008, dated 2019).
# Key:
# [1] = test system: phospho-CREB (Serine 133); assay: BDNF-stimulated phosphorylation of CREB after Aβ exposure, Western blot; format: cell-based, rat; details: 5 μM Aβ1-42 + 10 μM cotinine 5 h, then BDNF 1 h
# Method: Western blot analysis of the BDNF-stimulated phosphorylation of CREB in extracts of cortical cells. Cells were exposed to vehicle, 5 μM Aβ alone or 5 μM Aβ plus 10 μM cotinine for 5 hours, then to BDNF (50 ng/ml) for 1 hour and analyzed for CREB by western blot (FIG. 6B). The histogram (FIG. 6A) represents the levels of phospho-CREB (Ser133) normalized against β-Tubulin used as a control of protein loading. The values represent significant (*) difference with P<0.05.
# Rat embryonic cortical cells were cultured in 24-well plates (0.3×10^6 cells/well) for 7 days, washed with PBS, collected and disrupted by sonication in ice-cold cell lysis buffer containing (20 mM Tris (pH 7.4), 150 mM NaCl, 1 mM ethylenediaminetetraacetic acid (EDTA), 1 mM egtazic acid (EGTA), 1% triton, 2.5 mM Na pyrophosphate, 1 mM β-glycerophosphate, 1 mM Na orthovanadate, 1 μg/ml leupeptin) (Cell Signaling Technology, Beverly, Mass., USA), 1 mM phenylmethylsulfonyl fluoride (PMSF) (Sigma) complete protease inhibitor cocktail (Roche Molecular Biochemicals, Indianapolis, Ind., USA). […] Protein concentration of supernatants was measured by Bio-Rad protein assay (Bio-Rad, Hercules, Calif., USA), and equal amounts of protein were separated by gradient (4-20%) SDS-PAGE and transferred to nitrocellulose membranes (BA83 0.2 μm; Bio-Rad). […]
# Aβ = Aβ (Homo sapiens, UniProt P05067); assay: Binding of cotinine to Aβ in vitro
# Aβ, sequence (P05067 672-713 limits assumed): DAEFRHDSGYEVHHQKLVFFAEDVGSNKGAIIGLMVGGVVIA
# [2] = test system: JNK1/2 phosphorylated (pJNK) at Thr183 and Thr185; assay: BDNF-induced pJNK in primary cortical neurons, Western blot; format: cell-based; details: BDNF 100 ng/ml plus cotinine 10 μM, 1 h
# Method: After 7 days in vitro, cortical neurons were treated with BDNF (100 ng/ml) alone or BDNF plus cotinine (10 μM) for 1 h. After treatments, cells were lysed and whole cell extracts were analyzed for the active forms of JNK and ERKs, pJNK and pERK1/2 by Western blot.
# Arc = assay: BDNF-induced Arc expression in primary cortical neurons, Western blot; format: cell-based; details: BDNF plus cotinine 2 h, 7 DIV cortical neurons
# Source text: Then cells were washed with PBS and disrupted by sonication in lysis buffer. Cell extracts were separated by SDS-PAGE and analyzed by Western blot with antibodies against Arc and β-tubulin, which was used as a control (FIG. 16B). The histogram represents the mean±SEM of experiments performed in triplicate. […] BDNF, brain-derived neurotrophic factor.
# Aβ1-42 peptide = target: T1, Aβ1-42 peptide (Homo sapiens, UniProt P05067); assay: AFM analysis of Aβ1-42 fibrillation; format: biochemical
# T1 construct: Aβ1-42 peptide was obtained from American Peptide; purchased American Peptide (Sunnyvale, Calif., USA)
# T1 sequence (P05067 672-713 limits assumed): as above
# Method: Since the aggregation behavior of Aβ is dependent on the presence of small concentrations of aggregated forms of the peptide, that are present in many commercial samples, we prepared the Aβ solution by first dissolving the peptide in Hexafluoroisopropanol (HFIP), a protocol that produces a starting solution constituted only of Aβ monomers (Chromy et al. (2003)). Lyophillized Aβ1-42 (American peptide) (1 mg) was dissolved in HFIP, evaporated and re-dissolved in 22 μl of dimethyl sulfoxide (DMSO, St. Louis, Mo.). These peptide preparations were then diluted in PBS buffer pH 7.4 alone or PBS plus cotinine to obtain solutions containing 1 mM Aβ1-42 with and without 2 mM cotinine. Then the Aβ1-42 solutions were incubated for 10 days and the formation of oligomers and fibers was examined.
# 20 μl aliquots of Aβ solutions were deposited on freshly cleaned and dried silicon wafers (approximately 1 mm thick). After waiting for 10 min, non-adsorbed portions of the samples were washed with de-ionized water (2000 μl). The wet surface of the silicon wafer was then dried using gentle flow of air.
# The AFM analysis was performed using an AFM apparatus (AFM, βA multimode SPM, Model no. 920-006-101, Vecco) that permits the acquisition of images using a tapping mode approach. This approach allows intermittent contact of the tip with the sample and minimizes the chances of deformation of the peptide samples. The cantilever and the tip were made up of silicon and the cantilever force constant was approximately 20-100 N/m with the resonance frequency between 200-400 khz. The scan rate was between 1.0 to 1.2 Hz. The analysis of fibrils and oligomers was performed using the software NanoScope Control, version 5.30.
# To investigate whether cotinine in addition to Aβ oligomerization also affected fibril formation, we used Atomic force miscroscopy (AFM) to analyze Aβ aggregation. The solutions were prepared dissolving Aβ in HFIP and after evaporation, in PBS alone or containing cotinine and incubated at 37° C. for 3 and 10 days.
# ERK1/2 = assay: BDNF-stimulated pERK1/2 in primary cortical neurons, Western blot; format: cell-based; details: BDNF 100 ng/ml plus cotinine 10 μM, 1 h
smiles,measurement,setting,value
CN1C(=O)CC[C@H]1c1cccnc1 [cotinine],increase of phosphoCREB versus cells treated with BDNF plus Aβ1-42,[1],34%
same,phosphoCREB level relative to control cells,[1],indistinguishable from the control cell values
same,binding to Aβ,Aβ,high affinity
same,levels of active JNK1/2 (pJNK) induced by BDNF,[2],decreased the levels of the active forms of JNK1/2
same,BDNF-induced expression of Arc,Arc,enhances the BDNF-induced expression of Arc
same,effect on Aβ aggregation and fibril length (AFM),"Aβ1-42 peptide; 1 mM Aβ1-42 + 2 mM cotinine, 10 days 37° C.",reduced Aβ aggregation and the length of Aβ fibrils
same,average length of Aβ fibrils,"Aβ1-42 peptide; 1 mM Aβ1-42 + 2 mM cotinine, 10 days 37° C., n=23, without cotinine 345±42",223±36
same,average diameter of the fibers,Aβ1-42 peptide; unchanged by presence of cotinine,22-24 nm
same,BDNF-stimulated phosphorylation of ERK,ERK1/2,did not affect the BDNF-stimulated phosphorylation of ERK
